Columns and labels:
Format in all cases: in vivo, human
[1] = system: osteoarthritis of the knee; assay: Second Phase 2 study: WOMAC (VAS) pain subscale score
Text: (§1) This is a Phase 2, multicenter, randomized, double blind (within dose), Ibuprofen-placebo controlled, parallel group, dose range finding study to evaluate the efficacy, safety, and PK of 2-(diethylamino)ethyl 2-(4-isobutylphenyl)propionate spray in adult subjects with clinically symptomatic OA of the knee. For subjects with bilateral knee pain, both knees will be treated, but the most symptomatic knee (ie, the most painful knee as measured by the Western Ontario and McMaster University Osteoarthritis Index [WOMAC® 3.1] pain subscale score at Screening) will be designated as the target knee for efficacy analyses. For subjects with unilateral knee pain, only the symptomatic (target) knee will be treated.
(§2) The VAS version of the WOMAC will be used for the Primary and Secondary Efficacy Endpoints. Efficacy endpoints will be assessed at Screening and Baseline (Day 1) and at the Week 2, Week 4, Week 8, and Week 12/EOS visits.
The Primary Efficacy Endpoint is the change from Baseline in the WOMAC (VAS) pain subscale score for the target knee at […] of treatment.
(§3) 4.9.2. Secondary Efficacy Endpoints: • 1. Change from Baseline in the WOMAC (VAS) pain subscale score for the target knee at 2, 8, and 12 weeks of treatment; • 2. Change from Baseline in the WOMAC (VAS) stiffness subscale scores for the target knee and WOMAC (VAS) functional ability subscale scores at 2, 4, 8, and 12 weeks of treatment; • 3. Change from Baseline in the overall WOMAC (VAS) score at 2, 4, 8, and 12 weeks of treatment; • 4. Subject's global assessment of disease status of the target knee at 2, 4, 8, and 12 weeks of treatment; • 5. Subject's global assessment of response to therapy of the target knee at 2, 4, 8, and 12 weeks of treatment; • 6. Amount of rescue medication (acetaminophen) consumed per day for target knee pain.
The Primary Efficacy Endpoint is change from Baseline in the WOMAC (VAS) pain subscale score for the target knee at 4 weeks of treatment, and will be analyzed using an analysis of covariance (ANCOVA). Treatment will be included as a fixed class effect and WOMAC Baseline pain subscale score as covariates. The primary comparisons of interest will be the difference between active Group A (4.375 mg 2-(diethylamino)ethyl 2-(4-isobutylphenyl)propionate/knee) and combined placebo, active Group B (8.75 mg 2-(diethylamino)ethyl 2-(4-isobutylphenyl)propionate/knee) and combined placebo, and active Group C (17.5 mg 2-(diethylamino)ethyl 2-(4-isobutylphenyl)propionate/knee) and combined placebo.

[2] = system: osteoarthritis of the knee; assay: Second Phase 2 study: WOMAC difficulty performing daily activities (functional ability) subscale score
Text: as §1, §2, §3
The Secondary Efficacy Endpoints, change from Baseline in the WOMAC subscale scores for pain, stiffness, and functional ability, and overall WOMAC score at 2, 4, 8, and 12 weeks of treatment, will be analyzed using the same methods as for the Primary Efficacy Endpoint.

[3] = system: osteoarthritis of the knee; assay: Second Phase 2 study: Subject's Global Assessment of Disease Status (SGADS)
Text: as §3

[4] = Baseline, oral, 3 × 400 mg (n = 20), first 130 subjects
[5] = Week 12, oral, 3 × 400 mg (n = 20), first 130 subjects
[6] = all subjects, Oral Ibuprofen 3 × 400 mg, n = 48, Week 12
[7] = all subjects, Oral Ibuprofen 3 × 400 mg, n = 48 vs. Placebo n = 48
[8] = oral 3×400 mg, first 130 subjects

Compound: CC(C)Cc1ccc(C(C)C(=O)O)cc1 (stereo not drawn) [Ibuprofen, 2-(4-isobutylphenyl)propionic acid, reference compound]
- WOMAC Pain Subscale Scores, Baseline (LS Mean) [1, 4]: 67.0 mm
- WOMAC Pain Subscale Scores, % of improvement from Placebo [1, 5]: 0.9%
- WOMAC Pain Subscale Scores, % of improvement from baseline [1, 5]: −32.2%
- WOMAC Pain Subscale Scores, Changes from Baseline (LS Mean) [1, 5]: −21.6 mm
- WOMAC Pain Subscale Scores, Different from placebo (LS Mean) [1, 5]: −0.5 mm
- WOMAC Pain Subscale Scores, Week 12 (LS Mean) [1, 5]: 45.4 mm
- WOMAC Pain Subscale Scores, % of improvement from Placebo [1, 6]: −4.5%
- WOMAC Pain Subscale Scores, % of improvement from baseline [1, 6]: −41.2%
- WOMAC Pain Subscale Scores, Changes from Baseline (LS Mean) [1, 6]: −25.4 mm
- WOMAC Pain Subscale Scores, Week 12 (LS Mean) [1, 6]: 36.3 mm
- WOMAC Pain, difference vs. Placebo [1, 7]: −2.8 mm
- WOMAC pain, difference from placebo [1, 8]: −0.5 mm
- WOMAC Difficulty Performing Daily Activities Subscale Scores, Baseline (LS Mean) [2, 4]: 65.5 mm
- WOMAC Difficulty Performing Daily Activities Subscale Scores, % of improvement from Placebo [2, 5]: −3.3%
- WOMAC Difficulty Performing Daily Activities Subscale Scores, % of improvement from baseline [2, 5]: −33.0%
- WOMAC Difficulty Performing Daily Activities Subscale Scores, Changes from Baseline (LS Mean) [2, 5]: −21.6 mm
- WOMAC Difficulty Performing Daily Activities Subscale Scores, Different from placebo (LS Mean) [2, 5]: −3.5 mm
- WOMAC Difficulty Performing Daily Activities Subscale Scores, Week 12 (LS Mean) [2, 5]: 43.9 mm
- WOMAC Difficulty Performing Daily Activities Subscale Scores, % of improvement from Placebo [2, 6]: −4.3%
- WOMAC Difficulty Performing Daily Activities Subscale Scores, % of improvement from baseline [2, 6]: −41.5%
- WOMAC Difficulty Performing Daily Activities Subscale Scores, Changes from Baseline (LS Mean) [2, 6]: −25.3 mm
- WOMAC Difficulty Performing Daily Activities Subscale Scores, Week 12 (LS Mean) [2, 6]: 35.7 mm
- WOMAC Functional Ability, difference vs. Placebo [2, 7]: −3.4 mm
- WOMAC functional ability, difference from placebo [2, 8]: −3.5 mm
- Subject’s Global Assessment of Disease Status Scores, Baseline (LS Mean) [3, 4]: 75.2 mm
- Subject’s Global Assessment of Disease Status Scores, % of improvement from baseline [3, 5]: −38.4%
- Subject’s Global Assessment of Disease Status Scores, % of improvement from placebo [3, 5]: −2.0%
- Subject’s Global Assessment of Disease Status Scores, Changes from Baseline (LS Mean) [3, 5]: −28.9 mm
- Subject’s Global Assessment of Disease Status Scores, Different from placebo (LS Mean) [3, 5]: −4.4 mm
- Subject’s Global Assessment of Disease Status Scores, Week 12 (LS Mean) [3, 5]: 46.3 mm
- Subject's Global Assessment of Disease Status Scores, % of improvement from Placebo [3, 6]: −0.7%
- Subject's Global Assessment of Disease Status Scores, % of improvement from baseline [3, 6]: −46.6%
- Subject's Global Assessment of Disease Status Scores, Changes from Baseline (LS Mean) [3, 6]: −33.3 mm
- Subject's Global Assessment of Disease Status Scores, Week 12 (LS Mean) [3, 6]: 38.1 mm
- SGADS, difference vs. Placebo [3, 7]: −2.9 mm
- SGADS, difference from placebo [3, 8]: −4.2 mm

Reference: patent US20240024273A1, “TOPICAL ADMINISTRATION OF 2-(DIETHYLAMINO)ETHYL 2-(4-ISOBUTYLPHENYL)PROPRIONATE FOR TREATMENT OF DISEASES” (TECHFIELDS PHARMA CO., LTD., priority 2020, published 2024)
